For the data set, the target named is ATP-binding cassette sub-family C member 2 (Rattus norvegicus, UniProt Q63120). Put plainly: TP_TRANSPORTER: transcellular transport in MDCKII(+GSH). The format is functional, cell-based. The following applies: dog, mdck-ii.

The structures appear in SMILES notation.

Chain of ATP-binding cassette sub-family C member 2 (Q63120 whole entry): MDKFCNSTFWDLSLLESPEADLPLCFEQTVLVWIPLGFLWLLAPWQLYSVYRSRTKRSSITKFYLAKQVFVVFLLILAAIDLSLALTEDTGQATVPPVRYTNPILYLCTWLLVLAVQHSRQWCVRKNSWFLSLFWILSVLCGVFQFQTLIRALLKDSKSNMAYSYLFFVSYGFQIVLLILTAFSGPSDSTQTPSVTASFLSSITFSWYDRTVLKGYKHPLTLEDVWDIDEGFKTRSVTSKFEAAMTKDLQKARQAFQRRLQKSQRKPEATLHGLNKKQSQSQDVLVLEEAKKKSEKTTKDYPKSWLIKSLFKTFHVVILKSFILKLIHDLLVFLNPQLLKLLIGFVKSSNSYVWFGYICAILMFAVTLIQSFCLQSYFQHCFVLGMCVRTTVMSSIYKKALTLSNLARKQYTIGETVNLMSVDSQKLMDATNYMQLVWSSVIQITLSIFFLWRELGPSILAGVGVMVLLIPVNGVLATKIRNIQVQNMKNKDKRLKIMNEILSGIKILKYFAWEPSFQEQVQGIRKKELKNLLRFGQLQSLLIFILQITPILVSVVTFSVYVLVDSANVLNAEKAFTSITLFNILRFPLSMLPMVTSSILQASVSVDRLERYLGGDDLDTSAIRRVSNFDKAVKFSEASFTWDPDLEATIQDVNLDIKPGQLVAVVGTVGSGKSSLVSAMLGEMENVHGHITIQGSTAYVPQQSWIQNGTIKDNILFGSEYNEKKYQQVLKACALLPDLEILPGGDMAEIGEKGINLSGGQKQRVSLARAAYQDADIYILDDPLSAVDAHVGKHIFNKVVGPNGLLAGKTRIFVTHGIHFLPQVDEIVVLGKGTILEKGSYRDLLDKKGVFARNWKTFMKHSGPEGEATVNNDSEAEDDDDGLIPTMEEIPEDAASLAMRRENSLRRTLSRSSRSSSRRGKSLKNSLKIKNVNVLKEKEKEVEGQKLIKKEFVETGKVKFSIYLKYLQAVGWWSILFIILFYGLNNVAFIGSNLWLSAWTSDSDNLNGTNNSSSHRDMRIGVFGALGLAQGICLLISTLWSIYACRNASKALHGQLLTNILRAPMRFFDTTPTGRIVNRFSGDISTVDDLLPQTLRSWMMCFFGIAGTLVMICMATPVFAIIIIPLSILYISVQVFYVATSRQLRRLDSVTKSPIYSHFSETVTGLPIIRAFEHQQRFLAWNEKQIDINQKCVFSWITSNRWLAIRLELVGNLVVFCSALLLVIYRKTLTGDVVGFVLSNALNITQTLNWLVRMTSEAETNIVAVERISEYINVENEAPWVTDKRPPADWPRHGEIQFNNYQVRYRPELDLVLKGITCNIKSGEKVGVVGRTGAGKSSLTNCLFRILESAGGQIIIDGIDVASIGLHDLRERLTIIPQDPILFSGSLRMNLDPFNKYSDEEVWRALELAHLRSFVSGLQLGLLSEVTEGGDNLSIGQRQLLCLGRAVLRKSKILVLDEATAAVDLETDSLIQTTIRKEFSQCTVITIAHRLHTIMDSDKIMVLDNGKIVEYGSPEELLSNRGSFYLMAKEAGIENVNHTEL

For the compound `COc1ccc2c(c[n+](C)c3c4cc5c(cc4ccc23)OCO5)c1OC` [CHELERYTHRINE], the Activity result was “substrate []”.

The values above are taken from ChEMBL document CHEMBL2074410, “Chelerythrine stimulates GSH transport by rat Mrp2 (Abcc2) expressed in canine kidney cells” (Am J Physiol Gastrointest Liver Physiol, 2003).
